Patent US20260009085A1, “METHODS AND COMPOSITIONS FOR THE DIAGNOSIS AND TREATMENT OF CANCER” (Chengdu Anticancer Bioscience, Ltd., priority 2023, published 2026)

Tests used:
[1] = test system: NCI-H23 cells; test: Immunofluorescent analysis of AURKB mis-localization (6 hours) and polyploidy (72 hours); type: cell-based, human; conditions: 6 hours or 72 hours
Method: The proportion of cells with AURKB mis-localization was measured to assess the function of MKLP2 (FIG. 3C). Immunofluorescent analysis of localization of kinetochore proteins AURKB and CREST was determined. Scale bar=10 μm. FIG. 3D is an immunoblot depicting the results of an experiment in which NCI-H23 cells were transiently transfected with MKLP2 siRNA. MKLP2 knockdown efficiency was assayed by immunoblot blot analysis 72 hours after transfection. FIG. 3E are graphs depicting the proportion of cells with AURKB mis-localization after treatment with MKLP2 siRNA after 6 hours of exposure and the proportion of polyploid cells after 72 hours.
Compounds were considered positive for the induction of polyploidy when the percentage of polyploid cells in the interphase population, was ≥5% (with deduction of basal level of polyploid cells) at 72 hours after initiation of treatment (FIG. 3A right panel, FIG. 3B right panel, and FIG. 3E right panel). Polyploid cells were defined as those with multinucleated nuclei, visible upon DAPI staining. The basal level of spontaneous polyploid cells with the screening cell line was less than 1%.
Immunofluorescent (IF) analysis was used to assess enzymatic activity (FIG. 3A left panel, FIG. 3B left panel, and FIG. 3E left panel) and localization of mitotic regulators. […]

[2] = test system: Calu6 tumor model; test: Calu6 xenograft tumor model (tumor growth, body weight, tumor weight, Ki-67); type: in vivo; conditions: Calu6 xenografted mice
Method: Xenografted mice were treated with novel antimitotic compounds LXY013, LW33R, and LG157, respectively (FIG. 4A). p-values in FIG. 4A are from Logrank analysis. Tumor growth curves and body weight over the course of the experiments are depicted with vehicle control in black, test compounds in gray (n=6). FIG. 4B is a set of images of tumors and a graph depicting tumor weight at an end-point of 20 days. FIG. 4C is a set of photomicrographs of immunohistochemistry analyses and its quantification, respectively, of Ki-67 expression in xenografts. For LG157, * is p<0.05. p-values in FIG. 4B and FIG. 4C are from multi-parametric analysis. **** is p<0.0001.
Additionally, the volume and weight of tumors in response to the compounds described herein were assessed (FIG. 4A-4B) as well as immunohistochemistry analyses and quantification of Ki-67 expression in xenografts (FIG. 4C).

[3] = test system: RPE-MYC; test: Model cell screen: CPPC complex localization and cell death, RPE-MYC; type: cell-based, human
Method: In the model screening cell lines, there was an indistinguishable threshold concentration of approximately 20 nM, which was required to show disruption of the CPPC complex by IHC at the spindle midzone and equatorial cortex of anaphase cells, indicating a failure in CPPC relocation. This similarity in the threshold effective concentration for target inhibition is, therefore, not influenced by overexpression of MYC. […] Similar data with other MYC-SL compounds were observed.

Compound: CNC(=O)c1cc(OC)cc(Oc2ncccc2-c2ccnc(C)c2)c1 [LG157]
- mitotic defects (AURKB mis-localization, polyploidy) [1]: elicit mitotic defects similar to those seen in cells treated with a known mitotic disruptor, paprotrain
- tumor growth [2]: inhibition of tumor growth
- cell death [3]: extensive cell death occurred in RPE-MYC
- threshold concentration required to show disruption of the CPPC complex ([3]; IHC at spindle midzone and equatorial cortex of anaphase cells): approximately 20 nM
